# In patent US6734194B2, “Method of use of (imidazol-5-yl)methyl-2-quinolinone derivatives to inhibit smooth muscle cell proliferation” (Janssen Pharmaceutica N.V., priority 1997, dated 2004):
# Tests used:
# Assay type in all cases: cell-based
# [1] = tested on: human pulmonary artery smooth muscle cells (PASMC); assay: Inhibition of smooth muscle cell proliferation, PASMC; settings: 144 h, PASMC cell line, incubated six days, Coulter cell count normalized to DMSO-treated controls, read-out: IC50 (concentration of test compound producing a 50% inhibition of cell proliferation)
# Excerpt: (§1) The effects of the compounds of the present invention were studied in human pulmonary artery smooth muscle cells (PASMC), human coronary artery smooth muscle cells (CASMC), and rat A10 arterial smooth muscle cells growing under standard tissue culture conditions. CASMC and PASMC cell cultures were purchased from Clonetics (San Diego, Calif.). A10 smooth muscle cells were purchased from the American Type Culture Collection (Bethesda, Md.). Cells were inoculated at an initial cell density of 50,000 cells per well in six-well plastic cluster tissue culture dishes in 3.0 ml of complete growth medium. Test compounds were dissolved in dimethysulfoxide (DMSO) and added in a 3 μl volume to each well to produce the desired concentrations of said test compound (5, 10, 50, 100 and 500 nM final concentrations). Cells were incubated for six days. On day 4, fresh medium plus a fresh solution containing the test compound were added to the cell cultures. On day 6, the growth medium was removed by aspiration. The cells were detached by trypsinizing in 1.0 ml of trypsin-EDTA solution. The cell suspensions were transferred to 20 ml of an isotonic diluent and 0.5 ml of the diluted cell suspension was counted with a Coulter particle counter. Cell counts from test compound-treated cultures were normalized to cell counts obtained from DMSO-treated controls and expressed as percent inhibition. […]
# [2] = tested on: human coronary artery smooth muscle cells (CASMC); assay: Inhibition of smooth muscle cell proliferation, CASMC; settings: 144 h, CASMC cell line, incubated six days, Coulter cell count normalized to DMSO-treated controls, read-out: IC50 (concentration of test compound producing a 50% inhibition of cell proliferation)
# Excerpt: as §1
# [3] = tested on: rat A10 arterial smooth muscle cells; assay: Inhibition of smooth muscle cell proliferation, A10 cells; settings: 144 h, A10 cell line, incubated six days, Coulter cell count normalized to DMSO-treated controls, read-out: IC50 (concentration of test compound producing a 50% inhibition of cell proliferation)
# Excerpt: as §1
compound,measurement,setting,value
"Cn1cncc1C(N)(c1ccc(Cl)cc1)c1ccc2c(c1)c(-c1cccc(Cl)c1)cc(=O)n2C (single isomer, unassigned; (+)) [Co. No. 75, (+)-6-[amino(4-chloro-phenyl)(1-methyl-1H-imidazol-5-yl)methyl]-4-(3-chlorophenyl)-1-methyl-2(1H)-quinolinone]",IC50,[1],0.024 µM
same,IC50,[2],0.016 µM
same,IC50,[3],0.014 µM
